Assay results from patent publication US20160152560A1, “Compounds for the treatment of hypertension and hypertensive end stage renal disease” (THE REGENTS OF THE UNIVERSITY OF CALIFORNIA, priority 2013, published 2016).
Values joined by “and” are separate entries in the source; they are usually repeats but may differ in a detail not shown here. Equal values may be shown once. Read-outs that look alike come from different tables or passages of the source. Ends that are not written are not given here.

Assays:
[1] = tested on: T1, nicotinic cholinergic receptor; test: Nicotine-stimulated [3H]-norepinephrine (catecholamine) secretion from PC12 cells; type: cell-based, rat; settings: for IC50 / Hill slope (cooperativity of inhibition of secretion): nicotine 30 μM, PC12 cells; for Hill slope (cooperativity of inhibition of secretion): Hill plot; for Norepinephrine secretion at ascending nicotine doses (noncompetitive inhibition): nicotine 10 to 1000 μM, PC12 cells (FIG. 3C); for Inhibition of catecholamine release triggered by nicotine: nicotine stimulation, PC12 cells (FIG. 3B)
T1 construct: nicotine 30 μM, PC12 cells, 30 min; other: Hill plot, nicotine 30 μM, PC12 cells; other: screening at 0.5 μM and 5 μM doses; nicotine 30 μM, PC12 cells; other:
Method: (§1) Rat PC12 pheochromocytoma cells were grown at 37° C. with 6% CO2, in 12-well plates, in Dulbecco's modified Eagle's medium (high glucose) supplemented with fetal bovine serum, horse serum, and penicillin/streptomycin. Secretion assays were performed as described previously (N. Biswas, et al., Endocrinology, 149 (2008), 749-757). Cells were labeled for 3 h with 1 μCi/mL of [^3H]-norepinephrine (NET678, Perkin-Elmer, Waltham, Mass.), then washed three times with basal medium and one time with secretion buffer. Subsequently, the cells were incubated for 30 min with or without the agonist nicotine (30 μM), in the presence or absence of test compounds (0.5 μM or 5 μM). For IC50 determinations, secretion assays were performed in the presence of increasing concentrations of test compounds. The extracellular secretion medium and the cell lysates were collected for [^3H]-norepinephrine measurement by liquid scintillation counting. Results were expressed as percent secretion:
(§2) % secretion=[amount released/(amount released+amount in lysate)]×100.
(§3) Net secretion was calculated as agonist-stimulated release minus basal release. To establish the specificity of secretory inhibition by test compounds, in some experiments catecholamine release was triggered with other classes of secretagogues that bypass the nicotinic cholinergic pathway: membrane depolarization (55 mM KCl); P2x purinergic receptor stimulation (100 μM ATP); K^+ (repolarizing) channel blockade (2 mM BaCl2 in the absence of extracellular Ca^2+); or a Ca^2+ ionophore (1 μM ionomycin).
Actions of test compounds were compared with the classical noncompetitive nicotinic antagonist chlorisondamine, wherein labeled cells were incubated with different doses of nicotine in the presence or absence of peptide antagonists or chlorisondamine (5 μM).

nicotinic receptors = test: Nicotine-induced 45Ca2+ uptake by PC12 cells; type: cell-based, rat; settings: nicotine 30 μM, read-out: IC50 for inhibition of nicotine-induced 45Ca2+ uptake
Method: Nicotinic cholinergic secretory responses in the chromaffin cells are triggered by an early influx of calcium. To test the ability of the compounds to interfere at this early stage of signal transduction, PC12 cells were stimulated with nicotine (30 μM) in the presence or absence of test compounds and agonist-mediated uptake of ^45Ca^2+ was measured. ^45Ca^2+ uptake was performed as described previously with minor modifications S. K. Mahata et al., J. Clin. Invest., 100 (1997), 1623-1633). Briefly, PC12 cells were grown on poly-L-lysine coated 6-well culture dishes, and were washed with 1 mL release buffer (150 mmol/L NaCl, 5 mmol/L KCl, 2 mmol/L CaCl2, 10 mmol/L Hepes buffer, pH 7.4) every 15 minutes for 1 hour at 37° C. Cells were then pre-incubated for 1 min in release buffer in the presence or absence of test compounds. Cells were incubated for 2 min with 1 mL of Ca^2+-free release buffer containing 2 μCi of ^45Ca^2+ (catalog number NEZ01300, Perkin-Elmer), 30 μM nicotine in the presence or absence of test compounds. Thereafter, Ca^2+ uptake was terminated by the addition of 2 mL of ice-cold Ca^2+-free secretion medium containing 2 mmol/L EGTA and 1 mmol/L LaCl3, and further washed six times with 2 mL of the same buffer. Cell lysis buffer (secretion medium containing 0.1% Triton X-100, 1 mL) was then added, and the lysate was collected for liquid scintillation counting.

PC12 cells [2] = test: Basal [3H]-norepinephrine secretion from PC12 cells; type: cell-based, rat; settings: no agonist
Method: as §1, §2
The compounds were also tested to determine their effect on basal secretion.

PC12 cells [3] = test: Catecholamine release triggered by secretagogues that bypass the nicotinic cholinergic pathway (KCl, ATP, BaCl2, ionomycin); type: cell-based, rat; settings: 55 mM KCl, 100 μM ATP, 2 mM BaCl2, 1 μM ionomycin
Method: as §3
In addition to nicotinic-cholinergic stimulation, several secretagogues that act at later stages in the secretory pathway than the nicotinic receptor were tested, including membrane depolarization (by KCl), or blockade of repolarization (by Ba^2+). In addition, secretagogues that act on different targets from the nicotinic-cholinergic receptor, such as P2x (ATP) or artificial Ca^2+ pores (Ca^2+ ionophore ionomycin) were used.

[4] = tested on: BPH/2J polygenic hypertensive mice; test: Telemetric continuous intra-arterial blood pressure and heart rate in hypertensive BPH/2J mice; type: in vivo, mouse; settings: 5 μg/g body weight i.p.
Source text: Telemetric measurement of blood pressure (BP) in conscious hypertensive mice (polygenic hypertensive BPH/2J mouse model; F. A. Wright et al., Hypertension, 34 (1999), p. 625-630) was achieved using a Data Sciences International (DSI; Transoma Medical) Physiol Tel telemetry system, implanting a catheter coupled to a TA11PA-C20 (DSI) transmitter, as described (N. R. Mahapatra et al., J. Clin. Invest., 115 (2005), 1942-1952). The animals and implants were left to stabilize for ten days after surgery. BPH/2J polygenic hypertensive mice (n=7/group) were then treated with test compound (5 μg/g body weight, intra-peritoneal; or vehicle). BP and heart rate (HR) were measured continuously over 24 hours, before and after compound administration.

[5] = target: nicotinic cholinergic receptor; settings: Mahata et al., Mol. Pharmacol. 66 (2004); read-out: IC50 of human catestatin, previously measured; cited from earlier work
[6] = Table 1, 30 min, read-out: IC50: concentration that achieves 50% inhibition of secretion
[7] = increasing compound doses, read-out: IC50 from secretion assays with increasing compound doses

Compound: Nc1nc(N)c2nc(CNc3ccc(C(=O)N[C@@H](CCC(=O)O)C(=O)O)cc3)cnc2n1 [TKO-10-1]
- IC50 [1, 6]: > 5 µM

Compound: O=C(Nc1cc(C2=NCCN2)cc(C2=NCCN2)c1)Nc1cc(C2=NCCN2)cc(C2=NCCN2)c1 [TKO-10-2]
- IC50 [1, 6]: > 5 µM

Compound: C/N=C(\NC)c1ccc(/N=C(\NC)c2ccc(/C(=N/c3ccc(/C(=N/C)NC)cc3)NC)cc2)cc1 [TKO-10-3]
- IC50 [1, 6]: 1.7 µM

Compound: C/N=C(/NC)c1ccc(NC(=O)Nc2cccc(NC(=O)Nc3ccc(/C(=N\C)NC)cc3)c2)cc1 [TKO-10-4]
- IC50 [1, 6]: 0.23 µM
- IC50 [1, 7]: 0.041 µM
- IC50 (nicotinic receptors): ~0.07 µM and 0.07 µM

Compound: CNC(=O)c1cc(NC(=O)Nc2cccc(C3=NCCN3)c2)cc(NC(=O)Nc2cccc(C3=NCCN3)c2)c1 [TKO-10-5]
- Hill slope (cooperativity of inhibition of secretion) [1]: near unity
- IC50 [1, 6]: 1.1 µM
- IC50 [1, 7]: 1 µM
- Norepinephrine secretion at ascending nicotine doses (noncompetitive inhibition) ([1]; 30 min): reduced norepinephrine secretion significantly
- Inhibition of catecholamine release triggered by nicotine [1]: significantly inhibited catecholamine release
- IC50 (nicotinic receptors): ~0.1 µM and 0.1 µM
- Effect on basal secretion (~5% 3H-NE release) (PC12 cells [2]): remained unaltered
- Inhibition of catecholamine release caused by agents acting distal to the receptor or on other receptor classes (PC12 cells [3]): not when secretion was caused by agents acting distal to the receptor, or on other receptor classes

Compound: CNC(=N)c1ccc(NC(=N)c2ccc(Cl)c(C(=N)Nc3ccc(C(=N)NC)cc3)c2)cc1 [TKO-10-6]
- IC50 [1, 6]: 1.8 µM

Compound: C/N=C(/NC)c1ccc(NC(=O)Nc2ccc(C)c(NC(=O)Nc3ccc(/C(=N\C)NC)cc3)c2)cc1 [TKO-10-7]
- IC50 [1, 6]: 0.29 µM
- IC50 [1, 7]: 0.024 µM
- IC50 (nicotinic receptors): ~0.1 µM and 0.1 µM

Compound: CCN/C(=N/c1cccc(C2=NCCN2)c1)c1ccc(/C(=N\c2cccc(C3=NCCN3)c2)NCC)cc1 [TKO-10-8]
- IC50 [1, 6]: 1.6 µM

Compound: CNC(=O)c1ccc(NC(=O)Nc2cccc(C3=NCCN3)c2)cc1NC(=O)Nc1cccc(C2=NCCN2)c1 [TKO-10-9]
- IC50 [1, 6]: 1.4 µM

Compound: Nc1nc(N)c(-c2ccc(Cl)cc2)c(CCc2ccc(NC(=O)CBr)cc2)n1 [TKO-10-10]
- IC50 [1, 6]: 1.5 µM

Compound: Cc1ccnc(NS(=O)(=O)c2ccc(/N=N/c3cc(/N=N/c4ccccc4)c(N)nc3N)cc2)n1 [TKO-10-11]
- IC50 [1, 6]: > 5 µM

Compound: Nc1nc(N)c(/N=N/c2ccc(S(=O)(=O)Nc3ncccn3)cc2)cc1/N=N/c1ccccc1 [TKO-10-12]
- IC50 [1, 6]: 2 µM

Compound: Cc1cc(NC(=O)NCc2ccc(N3C(N)=NC(N)=NC3(C)C)cc2)ccc1S(=O)(=O)F [TKO-10-13]
- IC50 [1, 6]: 0.87 µM

Compound: CCN(CC)CC(O)CNc1cc(C)nc(NC(=N)Nc2ccc(Cl)c(Cl)c2)n1 (stereo not drawn) [TKO-10-14]
- IC50 [1, 6]: 0.68 µM
- Norepinephrine secretion at ascending nicotine doses (noncompetitive inhibition) ([1]; 30 min): reduced norepinephrine secretion significantly
- Inhibition of catecholamine release triggered by nicotine [1]: significantly inhibited catecholamine release
- Effect on basal secretion (~5% 3H-NE release) (PC12 cells [2]): remained unaltered
- Inhibition of catecholamine release caused by agents acting distal to the receptor or on other receptor classes (PC12 cells [3]): not when secretion was caused by agents acting distal to the receptor, or on other receptor classes

Compound: CC1(C)N=C(N)N=C(N)N1c1cccc(CNC(=O)Nc2ccccc2)c1 [TKO-10-15]
- IC50 [1, 6]: > 5 µM

Compound: CCN1CCC(CNc2cc(C)nc(NC(=N)Nc3ccc(Cl)c(Cl)c3)n2)C1 (stereo not drawn) [TKO-10-16]
- IC50 [1, 6]: 0.45 µM

Compound: CCN1CCC(CNc2cc(C)nc(NC(=N)Nc3cc(Cl)cc(Cl)c3)n2)C1 (stereo not drawn) [TKO-10-17]
- IC50 [1, 6]: 1.9 µM

Compound: C/C(=N\NC(=N)N)c1cccc(NC(=S)Nc2cccc(/C(C)=N/NC(=N)N)c2)c1 [TKO-10-18]
- Hill slope (cooperativity of inhibition of secretion) [1]: near unity
- IC50 [1, 6]: 0.18 µM
- IC50 [1, 7]: 0.017 µM
- IC50 (nicotinic receptors): ~0.09 µM and 0.09 µM
- Fall in heart rate (HR) [4]: ~180 beats/min
- Reflex tachycardia after fall in BP [4]: not accompanied by reflex tachycardia
- Time by which BP declines were apparent [4]: 10 to 30 min
- Time for which BP declines were maintained [4]: ≤ 60 min
- Reduction in DBP ([4]; initial DBP 104.9±0.1 mmHg): ~25 mmHg
- Reduction in SBP ([4]; initial SBP 145.0±0.6 mmHg): ~33 mmHg

Compound: Nc1ccc(CCCCc2nc(N)nc(N)c2-c2ccc(Cl)c(Cl)c2)cc1 [TKO-10-19]
- IC50 [1, 6]: 2.6 µM

Compound: CCN1CCCC(CNc2cc(C)nc(NC(=N)Nc3ccc(Cl)c(Cl)c3)n2)C1 (stereo not drawn) [TKO-10-20]
- IC50 [1, 6]: 1.1 µM

Compound: SSMKLSFRARAYGFRGPGPQL [Human catestatin]
- IC50 [5]: 0.82 µM
